The text below walks through data of PMC8438664 (ACS Infectious Diseases, 2021).

The conditions of data set [1]: lipid II of VanA or VanB positive strains; cited from earlier work.
Data set [2] has as its system conditionally immortalized proximal tubule epithelial cells (ciPTECs) overexpressing OAT-1. Nature of the data set: ciPTEC cell viability assay. Type of data set: cell-based, human. The note with it: 24 h, relative mitochondrial activity (PrestoBlue).

Structures are written as SMILES.

Usually viability stands for the share of living cells, or the viability signal relative to a control. Low readings indicate more harm to the cells, high ones less harm to the cells. `CN[C@H](CC(C)C)C(=O)N[C@H]1C(=O)N[C@@H](CC(N)=O)C(=O)N[C@H]2C(=O)N[C@H]3C(=O)N[C@H](C(=O)N[C@H](C(=O)O)c4cc(O)cc(O)c4-c4cc3ccc4O)[C@H](O)c3ccc(c(Cl)c3)Oc3cc2cc(c3O[C@@H]2O[C@H](CO)[C@@H](O)[C@H](O)[C@H]2O[C@H]2C[C@](C)(N)[C@H](O)[C@H](C)O2)Oc2ccc(cc2Cl)[C@H]1O` [Vancomycin]: in data set [1], the “fold reduction in binding affinity on mutation of D-Ala-D-Ala to D-Ala-D-Lac” value is more than 1000 fold. In data set [2], the “viability at a concentration of 1 mM” value is on record as more than 50%.
